From patent publication US11364275B2, “Linear lipopeptide paenipeptins and methods of using the same” (priority 2017, dated 2022)
Converted amounts (≈) assume the structure as drawn. Where two headings read alike, the source gives them in different places. Values belong to the compound of their own block, whether it stands above or below them. Where a SMILES comes first, the peptide text is derived from it. [ ]: non-standard residue; d: D form. The star is where a group is joined. Cha = N[C@@H](CC1CCCCC1)C(=O)O; Heptanoyl = CCCCCCC(=O)*; Dab = NCC[C@H](N)C(=O)O

Key:
rabbit red blood cells = experiment: Hemolytic activity; type: cell-based; settings: relative to Triton X-100
Procedure, shortened: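 Washed defibrinated rabbit RBCs in PBS pH 7.2 incubated 30 min at 37 °C with paenipeptin analogues at 16–128 μg/mL final. Released hemoglobin read at 415 nm in the supernatant; % hemolysis relative to 0.1% Triton X-100.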

E. coli ATCC 25922 [1] = type: cell-based, Escherichia coli
From the text: (§1) The surviving cells from each antimicrobial concentration with no visible growth were enumerated by plating on tryptic soy agar (TSA). MBC was defined as the lowest concentration of the antimicrobial agent that led to at least a 99.9% reduction in the number of viable bacterial cells relative to the initial inoculum. There were three independent experiments with one replicate in each experiment.

[2] = system: Escherichia coli ATCC 25922; type: cell-based; settings: ATCC 25922
S. aureus ATCC 29213 [3] = type: cell-based, Staphylococcus aureus
Protocol: (§2) The impact of human serum on the antibacterial activity of selected paenipeptin analogues was determined using a procedure similar to that used for MIC determination as described above except that the microbiological medium was replaced by human serum (MP Biomedicals, Solon, Ohio). Paenipeptin analogues were two-fold diluted in 100% human serum and mixed with an equal volume of 90% serum containing approximately 1.5×10^5 CFU/mL of E. coli ATCC 25922 or S. aureus ATCC 29213. The final paenipeptin concentrations ranged from 0.5-64 μg/mL in 95% serum. The MIC in the presence of serum was then tested as described above.

[4] = system: Acinetobacter baumannii ATCC 19606; type: cell-based
[5] = system: Pseudomonas aeruginosa ATCC 27853; type: cell-based; settings: ATCC 27853
S. aureus ATCC 29213 [6] = type: cell-based, Staphylococcus aureus; remark: listed apart in the source
From the text: as §1

S. aureus ATCC 43300 = type: cell-based, Staphylococcus aureus
From the text: as §1

P. aeruginosa ATCC 27853 [7] = type: cell-based, Pseudomonas aeruginosa
From the text: as §1

[8] = system: nine carbapenem-resistant clinical isolates from the FDA-CDC Antibiotic Resistance Bank; settings: range over nine carbapenem-resistant clinical isolates
Protocol: The minimum inhibitory concentration (MIC) of paenipeptin analogues was determined using the broth microdilution method (Wirker, M. A. Methods for Dilution Antimicrobial Susceptibility Tests for Bacteria that Grow Aerobically: Approved Standard M07-A8; Clinical and Laboratory Standards Institute, Wayne, Pa., 2009).
Paenipeptin analogues were two-fold diluted in tryptic soy broth (TSB; Becton Dickinson) and mixed with an equal volume of bacterial suspensions in TSB containing approximately 1.5×10^5 colony-forming units (CFU)/mL in a clear UV-sterilized 96-well microtiter plate (NBS, Corning Inc., Corning, N.Y.). […] The microtiter plate was incubated at 37° C. for 18-20 h.
There were at least three independent experiments with one replicate in each experiment.

P. aeruginosa ATCC 27853 [9] = experiment: Impact of purified LPS on bactericidal activity; type: cell-based, Pseudomonas aeruginosa; settings: LPS 100 μg/ml; analogue at 16 μg/mL; 60 min
Protocol: For studies with LPS, P. aeruginosa ATCC 27853 was diluted with TSB to contain approximately 10^6 CFU/mL. […] The mixtures were incubated at 37° C. with agitation at 200 rpm for 60 min. Surviving cells were quantified by plating on TSA. There were three independent experiments with one replicate in each experiment. […] There were four independent experiments with one replicate in each experiment.

[10] = system: P. aeruginosa ATCC 27853 biofilm; experiment: Established catheter-associated biofilm in vitro; type: cell-based, Pseudomonas aeruginosa; settings: 40× MIC (40 μg/ml)
Protocol: (§3) Each well was inoculated with the methicillin-resistant S. aureus strain LAC or P. aeruginosa ATCC 27853 to an OD600nm of 0.05. […] After 72 h of exposure, catheters were rinsed with PBS, followed by sonication (for S. aureus) or vigorous vortexing (for P. aeruginosa) to quantitatively recover adherent bacteria. Viable S. aureus or P. aeruginosa cells were enumerated by plating serial dilutions on TSA.

E. coli ATCC 25922 [11] = type: cell-based, Escherichia coli; settings: E. coli; 95% serum vs TSB
Protocol: as §2

A. baumannii ATCC 19606 = type: cell-based, Acinetobacter baumannii
From the text: as §1

S. aureus ATCC 29213 [12] = experiment: Impact of purified LTA on bactericidal activity; type: cell-based, Staphylococcus aureus; settings: analogue at 32 μg/mL, 60 min
[13] = system: Escherichia coli ATCC 25922; type: in vitro ADME
Protocol: To determine the stability of peptides in human serum, paenipeptin analogues were added into 100% human serum to a final concentration of 64 μg/ml. The mixtures were incubated at 37° C. and samples were withdrawn at 0, 6, 12 and 24 h. […] The residual antibacterial activity after incubation in human serum was compared to the non-treated control.

S. aureus ATCC 29213 [14] = experiment: Time-kill assay; type: cell-based, Staphylococcus aureus; settings: for reduction of viable cells: after 4 h
Protocol: (§4) The surviving cells after antimicrobial treatment were enumerated at 0, 2, 4, 6 and 24 h by plating on TSA. There were three independent experiments with one replicate in each experiment

[15] = system: Klebsiella pneumoniae ATCC 13883; type: cell-based; settings: K. pneumoniae
[16] = system: methicillin-resistant S. aureus strain LAC biofilm; experiment: Established catheter-associated biofilm in vitro; type: cell-based, Staphylococcus aureus; settings: for reduction of viable biofilm-associated cells: 72 h
Protocol: as §3

P. aeruginosa ATCC 27853 [17] = experiment: Time-kill assay; type: cell-based, Pseudomonas aeruginosa
Protocol: as §4

[18] = system: K. pneumoniae FDA-CDC AR 0034; experiment: microbe, parasite or virus in culture; settings: Klebsiella pneumoniae, read-out: MIC alone
[19] = system: K. pneumoniae FDA-CDC AR 0068; experiment: microbe, parasite or virus in culture; settings: Klebsiella pneumoniae, read-out: MIC alone
[20] = system: A. baumannii FDA-CDC AR 0083; experiment: microbe, parasite or virus in culture; settings: Acinetobacter baumannii, read-out: MIC alone
[21] = system: A. baumannii FDA-CDC AR 0037; experiment: microbe, parasite or virus in culture; settings: Acinetobacter baumannii, read-out: MIC alone
[22] = system: K. pneumoniae FDA-CDC AR 0080; experiment: microbe, parasite or virus in culture; settings: Klebsiella pneumoniae, read-out: MIC alone
[23] = system: A. baumannii FDA-CDC AR 0063; experiment: Time-kill kinetics in 95% human serum, alone and combined; type: cell-based, Acinetobacter baumannii; settings: A. baumannii AR 0063, 24 h
Protocol: Bacterial viable counts were determined at 0, 2, 4, 6, and 24 h after antimicrobial treatment. Bacterial surviving counts at 24 h endpoints were subjected to analysis of variance (ANOVA) followed by Tukey's honest significant difference (HSD) tests using SPSS Statistics (version 24; SPSS, Inc., Chicago, Ill., USA).
To further test the therapeutic potential of paenipeptin analogues, the time-kill kinetics assays of paenipeptins alone or in combination with other antibiotics were performed in 95% human serum in vitro. Without antimicrobial treatment, the population of A. baumannii FDA-CDC AR 0063 increased from 5.8 log to 9.3 log within 24 h. […] (FIG. 7A).

[24] = system: K. pneumoniae FDA-CDC AR 0097; experiment: microbe, parasite or virus in culture; settings: Klebsiella pneumoniae, read-out: MIC alone
[25] = system: Klebsiella pneumoniae ATCC 13883; experiment: MIC of antibiotics with or without paenipeptin analogues (potentiation); type: cell-based; settings: Klebsiella pneumoniae, ATCC13883
From the text: (§5) Gram-negative bacteria, including Acinetobacter and Klebsiella, are intrinsically resistant to the hydrophobic antibiotic rifampicin.

[26] = system: Acinetobacter baumannii ATCC 19606; experiment: as above; type: cell-based; settings: Acinetobacter baumannii, ATCC19606; A. baumannii ATCC 19606; rifampicin alone; read-out: MIC of rifampicin at 0 μg/mL of paenipeptin analogues
From the text: as §5

[27] = system: A. baumannii FDA-CDC AR 0063; experiment: microbe, parasite or virus in culture; settings: Acinetobacter baumannii, read-out: MIC alone
[28] = system: A. baumannii FDA-CDC AR 0052; experiment: microbe, parasite or virus in culture; settings: Acinetobacter baumannii, read-out: MIC alone
[29] = system: A. baumannii FDA-CDC AR 0070; experiment: microbe, parasite or virus in culture; settings: Acinetobacter baumannii, read-out: MIC alone
[30] = system: K. pneumoniae FDA-CDC AR 0044; experiment: microbe, parasite or virus in culture; settings: Klebsiella pneumoniae, read-out: MIC alone

MIC [2]: 0.5 to 2 µg/mL | MIC ([4]; ATCC 19606): 2 to 4 µg/mL | MIC [5]: 1 to 2 µg/mL
SMILES: CCCCCCC(=O)N[C@@H](CCN)C(=O)N[C@@H](Cc1ccccc1)C(=O)N[C@@H](CCN)C(=O)N[C@H](Cc1ccccc1)C(=O)N[C@@H](CC(C)C)C(=O)N[C@@H](CCN)C(=O)N[C@H](CC(C)C)C(=O)N[C@@H](Cc1ccccc1)C(=O)N[C@@H](CO)C(N)=O [Analogue 7] (Heptanoyl-[Dab]F[Dab][dF]L[Dab][dL]FS-NH2)
Hemolysis (rabbit red blood cells; 32 μg/mL): 5.10 ± 1.26% | Hemolysis (rabbit red blood cells; 64 μg/mL): 18.8 ± 2.44% | Hemolysis (rabbit red blood cells; 128 μg/mL): 64.2 ± 3.28% | MBC (E. coli ATCC 25922 [1]): 8 to 16 µg/mL | Minimum inhibitory concentration [2]: 0.5 to 2 µg/mL | Minimum inhibitory concentration (S. aureus ATCC 29213 [3]; ATCC 29213): 32 to 64 µg/mL | MBC (S. aureus ATCC 29213 [6]): 8 to 32 µg/mL | MBC (S. aureus ATCC 43300): 8 to 16 µg/mL

SMILES: CC(C)C[C@H](NC(=O)[C@@H](Cc1ccccc1)NC(=O)[C@H](CCN)NC(=O)[C@H](Cc1ccccc1)NC(=O)[C@H](CCN)NC(=O)[C@@H](N)CC1CCCCC1)C(=O)N[C@@H](CCN)C(=O)N[C@H](CC(C)C)C(=O)N[C@@H](Cc1ccccc1)C(=O)N[C@@H](CO)C(N)=O [Analogue 17] (H-[Cha][Dab]F[Dab][dF]L[Dab][dL]FS-NH2)
MBC (P. aeruginosa ATCC 27853 [7]): 2 to 4 µg/mL | Hemolysis (rabbit red blood cells; 16 μg/mL): 0.60 ± 0.18% | Hemolysis (rabbit red blood cells; 32 μg/mL): 2.46 ± 0.34% | Hemolysis (rabbit red blood cells; 64 μg/mL): 11.02 ± 0.99% | Hemolysis (rabbit red blood cells; 128 μg/mL): 34.6 ± 0.91% | MBC (E. coli ATCC 25922 [1]): 8 to 16 µg/mL | MIC [8]: 0.5 to 2 µg/mL | impact of purified LPS on bactericidal activity (P. aeruginosa ATCC 27853 [9]): neutralized the bactericidal activity | MIC [2]: 0.5 to 1 µg/mL | reduction in activity in the presence of human serum (S. aureus ATCC 29213 [3]; S. aureus, 95% serum vs TSB): 88-94% | reduction of viable cells in established biofilm [10]: 2.6 log | improvement in antibacterial activity by comparison to compound 8 ([4]; A. baumannii): ≥ 4 fold | reduction in activity in the presence of human serum (E. coli ATCC 25922 [11]): 88-94% | MBC (A. baumannii ATCC 19606): 4 to 8 µg/mL | impact of purified LTA on antibacterial activity (S. aureus ATCC 29213 [12]; LTA 50 μg/ml): some inhibition | impact of purified LTA on antibacterial activity (S. aureus ATCC 29213 [12]; LTA 100 μg/mL): significantly reduced the antibacterial activity | MIC after incubation in human serum at 37° C. ([13]; ATCC 25922, 0 h): 4 to 8 µg/mL | MIC after incubation in human serum at 37° C. ([13]; ATCC 25922, 6 h): 4 to 8 µg/mL | MIC after incubation in human serum at 37° C. ([13]; ATCC 25922, 12 h): 4 to 8 µg/mL | regrowth (S. aureus ATCC 29213 [14]; 8 μg/ml): Regrowth | reduction of viable cells (S. aureus ATCC 29213 [14]; 16 μg/ml): 3.1 logs | reduction of viable cells (S. aureus ATCC 29213 [14]; 32 μg/ml): 5.4 logs | improvement in antibacterial activity by comparison to compound 8 [15]: ≥ 4 fold | reduction of viable biofilm-associated cells ([16]; 40 μg/mL (5×MIC)): 3 log | reduction of viable biofilm-associated cells ([16]; 160 μg/mL (20×MIC)): 5 log | catheters completely cleared of viable bacteria ([16]; 20 times MIC, six catheters): 50% | reduction of viable cells (P. aeruginosa ATCC 27853 [17]; 8 μg/ml, 2 h): 2.2 log | regrowth at 24 h (P. aeruginosa ATCC 27853 [17]; 8 μg/ml, 24 h): significant bacterial regrowth was observed | viable cells after 24 h exposure (P. aeruginosa ATCC 27853 [17]; 16 μg/ml, 24 h): no viable cells were detected | reduction of viable cells (P. aeruginosa ATCC 27853 [17]; 16 μg/ml, within 2 h): 3.7 logs | viable cells after 24 h exposure (P. aeruginosa ATCC 27853 [17]; 32 μg/ml, 24 h): no viable cells were detected | reduction of viable cells (P. aeruginosa ATCC 27853 [17]; 32 μg/ml, within 2 h): 5.1 logs

MIC [18]: 16 µg/mL (≈ 19.4 µM) | MIC [19]: 32 µg/mL (≈ 38.9 µM) | MIC [20]: 32 µg/mL (≈ 38.9 µM) | MIC [21]: 2 µg/mL (≈ 2.43 µM) | MIC [22]: > 32 µg/mL | MIC [24]: 32 µg/mL (≈ 38.9 µM) | MIC ([25]; K. pneumoniae ATCC 13883, rifampicin alone, read-out: MIC of rifampicin at 0 μg/mL of paenipeptin analogues): 16 µg/mL | MIC ([25]; K. pneumoniae, read-out: MIC of rifampicin alone): 19.4 µM | MIC [26]: 16 µg/mL | MIC [27]: 1 µg/mL (≈ 1.22 µM) | MIC [28]: 1 µg/mL (≈ 1.22 µM) | MIC [29]: 1 µg/mL (≈ 1.22 µM) | MIC [30]: 32 µg/mL (≈ 38.9 µM)
SMILES: CO[C@H]1/C=C/O[C@@]2(C)Oc3c(C)c(O)c4c(O)c(c(/C=N/N5CCN(C)CC5)c(O)c4c3C2=O)NC(=O)/C(C)=C\C=C\[C@H](C)[C@H](O)[C@@H](C)[C@@H](O)[C@@H](C)[C@H](OC(C)=O)[C@@H]1C [rifampicin]
log reduction of cell population, single agent at 4 μg/ml [23]: 1.4 log
